Reference: ChEMBL document CHEMBL1201862, “PubChem BioAssay data set” (2004)
Each block holds one compound with its values, some of them ahead of it. Calls of active or inactive are those of the source.

Tests used:
[1] = tested on: CHO-K1; test: (§1) Counterscreen for antagonists of the orexin 1 receptor (OX1R; HCRTR1): Homogeneous time resolved fluorescence (HTRF)-based cell-based dose response assay to identify antagonists of the parental CHO-K1 cell line. [Related pubchem assays (depositor defined):AID434989, AID435008, AID463079, AID485270, AID492963, AID492964, AID492965, AID493232, AID504699, AID504701]; format: functional; conditions: Cricetulus griseus
[2] = target: T1, Orexin receptor type 2 (Homo sapiens, UniProt O43614); test: Counterscreen assay for antagonists of the orexin 1 receptor (OX1R; HCRTR1): Homogeneous Time Resolved Fluorescence (HTRF)-based cell-based dose response assay for antagonists of the orexin 2 receptor (OX2R; HCRTR2), run by assay provider.; format: functional
T1 sequence (O43614 whole entry): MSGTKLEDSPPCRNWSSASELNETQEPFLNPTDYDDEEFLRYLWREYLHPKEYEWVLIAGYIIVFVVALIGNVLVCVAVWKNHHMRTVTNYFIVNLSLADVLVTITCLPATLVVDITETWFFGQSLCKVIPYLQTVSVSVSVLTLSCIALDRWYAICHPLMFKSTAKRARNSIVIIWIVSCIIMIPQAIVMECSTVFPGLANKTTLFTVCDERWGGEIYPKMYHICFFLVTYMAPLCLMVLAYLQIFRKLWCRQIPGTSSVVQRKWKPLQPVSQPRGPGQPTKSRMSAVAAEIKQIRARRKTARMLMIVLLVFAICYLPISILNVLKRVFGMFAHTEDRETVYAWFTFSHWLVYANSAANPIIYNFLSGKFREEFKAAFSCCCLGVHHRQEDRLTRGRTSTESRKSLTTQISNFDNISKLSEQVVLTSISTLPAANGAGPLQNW

[3] = target: T2, Orexin/Hypocretin receptor type 1 (Homo sapiens, UniProt O43613); test: Homogeneous Time Resolved Fluorescence (HTRF)-based cell-based high throughput dose response assay for antagonists of the orexin 1 receptor (OX1R; HCRTR1). [Related pubchem assays (depositor defined):AID434989, AID435008, AID463079, AID485270, AID492963, AID492964, AID492965, AID493232, AID504717, AID504718]; format: functional
T2 sequence (O43613 whole entry): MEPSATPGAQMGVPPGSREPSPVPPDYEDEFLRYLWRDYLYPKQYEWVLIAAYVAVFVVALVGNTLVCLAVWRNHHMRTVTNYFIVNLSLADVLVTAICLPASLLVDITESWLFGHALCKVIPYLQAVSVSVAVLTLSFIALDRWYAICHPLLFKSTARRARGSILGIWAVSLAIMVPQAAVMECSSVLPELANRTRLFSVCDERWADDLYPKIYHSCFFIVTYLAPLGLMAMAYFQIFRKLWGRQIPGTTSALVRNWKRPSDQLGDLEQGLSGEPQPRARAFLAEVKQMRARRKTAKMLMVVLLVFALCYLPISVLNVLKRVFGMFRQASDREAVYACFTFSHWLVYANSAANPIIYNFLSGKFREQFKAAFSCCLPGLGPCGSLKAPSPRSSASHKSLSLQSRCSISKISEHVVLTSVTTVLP

[4] = target: T1, Orexin receptor type 2; test: Counterscreen assay for antagonists of the orexin 1 receptor (OX1R; HCRTR1): Fluorescence-based cell-based dose response assay for antagonists of the orexin 2 receptor (OX2R; HCRTR2), run by assay provider.; format: functional
[5] = target: T2, Orexin/Hypocretin receptor type 1; test: Fluorescence-based cell-based high throughput dose response assay for antagonists of the orexin 1 receptor (OX1R; HCRTR1). [Related pubchem assays (depositor defined):AID434989, AID435008, AID463079, AID485270, AID492963, AID492964, AID492965, AID493232, AID504717, AID504718]; format: functional
[6] = as §1, with “Fluorescence-based” for “Homogeneous time resolved fluorescence (HTRF)-based”, “cell-based high throughput” for “cell-based”, “CHO” for “CHO-K1”; format: functional
[7] = target: T3, Caspase-3 (Homo sapiens, UniProt P42574); test: SAR Analysis of small molecule inhibitors of Sentrin-specific proteases (SENPs) using a Caspase-3 Selectivity assay. [Related pubchem assays (depositor defined):AID2540, AID2599, AID434973, AID489001]; format: functional
T3 sequence (P42574 whole entry): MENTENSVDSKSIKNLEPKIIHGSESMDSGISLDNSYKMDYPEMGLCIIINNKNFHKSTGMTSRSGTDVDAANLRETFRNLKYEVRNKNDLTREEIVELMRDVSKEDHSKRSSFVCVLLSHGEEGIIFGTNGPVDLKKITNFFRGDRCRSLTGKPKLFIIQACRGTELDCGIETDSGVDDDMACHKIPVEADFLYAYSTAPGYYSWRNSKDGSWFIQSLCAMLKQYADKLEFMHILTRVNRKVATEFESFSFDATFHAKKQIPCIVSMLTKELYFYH

[8] = target: T4, Sentrin-specific protease 7 (Homo sapiens, UniProt Q9BQF6); test: SENP7 protease inhibitors, SAR follow-up, biochemical, luminescence (AID 504497); format: functional
T4 sequence (Q9BQF6 whole entry): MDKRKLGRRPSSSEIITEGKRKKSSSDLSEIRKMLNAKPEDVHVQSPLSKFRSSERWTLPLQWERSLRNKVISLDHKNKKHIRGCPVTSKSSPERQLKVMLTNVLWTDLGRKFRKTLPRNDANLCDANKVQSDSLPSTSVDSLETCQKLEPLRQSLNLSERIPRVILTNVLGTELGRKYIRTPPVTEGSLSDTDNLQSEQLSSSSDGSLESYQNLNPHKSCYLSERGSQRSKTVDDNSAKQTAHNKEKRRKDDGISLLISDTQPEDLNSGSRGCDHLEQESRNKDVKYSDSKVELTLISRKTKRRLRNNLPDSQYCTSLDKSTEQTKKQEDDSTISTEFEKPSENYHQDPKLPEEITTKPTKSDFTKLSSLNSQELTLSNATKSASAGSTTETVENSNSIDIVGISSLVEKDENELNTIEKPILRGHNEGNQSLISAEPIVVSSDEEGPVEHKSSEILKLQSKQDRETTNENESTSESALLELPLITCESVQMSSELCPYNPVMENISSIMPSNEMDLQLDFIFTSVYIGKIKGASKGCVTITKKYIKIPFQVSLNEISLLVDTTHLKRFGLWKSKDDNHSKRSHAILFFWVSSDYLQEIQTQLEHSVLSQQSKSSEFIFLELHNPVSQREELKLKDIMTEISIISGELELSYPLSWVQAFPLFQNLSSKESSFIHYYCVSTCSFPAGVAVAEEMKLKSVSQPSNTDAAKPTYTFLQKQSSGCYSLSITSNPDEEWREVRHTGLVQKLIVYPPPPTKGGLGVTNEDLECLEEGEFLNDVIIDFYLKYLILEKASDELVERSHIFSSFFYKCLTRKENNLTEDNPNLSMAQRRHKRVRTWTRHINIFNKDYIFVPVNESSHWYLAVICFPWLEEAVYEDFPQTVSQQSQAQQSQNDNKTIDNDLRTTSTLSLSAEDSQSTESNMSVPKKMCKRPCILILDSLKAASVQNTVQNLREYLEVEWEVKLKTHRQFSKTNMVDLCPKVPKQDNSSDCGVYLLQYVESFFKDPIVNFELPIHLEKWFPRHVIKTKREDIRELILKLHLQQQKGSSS

[9] = target: T5, Sentrin-specific protease 8 (Homo sapiens, UniProt Q96LD8); test: SENP8 protease inhibitors, SAR follow-up, biochemical, luminescence (AID 504501); format: functional
T5 sequence (Q96LD8 whole entry): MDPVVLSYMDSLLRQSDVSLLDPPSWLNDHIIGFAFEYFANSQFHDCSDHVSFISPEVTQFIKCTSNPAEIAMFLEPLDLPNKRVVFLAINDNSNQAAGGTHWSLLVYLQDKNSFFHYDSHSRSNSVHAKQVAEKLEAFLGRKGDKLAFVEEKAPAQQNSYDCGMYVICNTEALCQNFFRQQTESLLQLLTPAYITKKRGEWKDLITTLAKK

[10] = target: T6, Sentrin-specific protease 6 (Homo sapiens, UniProt Q9GZR1); test: SAR Analysis of small molecule inhibitors of Sentrin-specific protease 6 (SENP6) using a Luminescent assay. [Related pubchem assays (depositor defined):AID2582, AID2599]; format: functional
T6 sequence (Q9GZR1 whole entry): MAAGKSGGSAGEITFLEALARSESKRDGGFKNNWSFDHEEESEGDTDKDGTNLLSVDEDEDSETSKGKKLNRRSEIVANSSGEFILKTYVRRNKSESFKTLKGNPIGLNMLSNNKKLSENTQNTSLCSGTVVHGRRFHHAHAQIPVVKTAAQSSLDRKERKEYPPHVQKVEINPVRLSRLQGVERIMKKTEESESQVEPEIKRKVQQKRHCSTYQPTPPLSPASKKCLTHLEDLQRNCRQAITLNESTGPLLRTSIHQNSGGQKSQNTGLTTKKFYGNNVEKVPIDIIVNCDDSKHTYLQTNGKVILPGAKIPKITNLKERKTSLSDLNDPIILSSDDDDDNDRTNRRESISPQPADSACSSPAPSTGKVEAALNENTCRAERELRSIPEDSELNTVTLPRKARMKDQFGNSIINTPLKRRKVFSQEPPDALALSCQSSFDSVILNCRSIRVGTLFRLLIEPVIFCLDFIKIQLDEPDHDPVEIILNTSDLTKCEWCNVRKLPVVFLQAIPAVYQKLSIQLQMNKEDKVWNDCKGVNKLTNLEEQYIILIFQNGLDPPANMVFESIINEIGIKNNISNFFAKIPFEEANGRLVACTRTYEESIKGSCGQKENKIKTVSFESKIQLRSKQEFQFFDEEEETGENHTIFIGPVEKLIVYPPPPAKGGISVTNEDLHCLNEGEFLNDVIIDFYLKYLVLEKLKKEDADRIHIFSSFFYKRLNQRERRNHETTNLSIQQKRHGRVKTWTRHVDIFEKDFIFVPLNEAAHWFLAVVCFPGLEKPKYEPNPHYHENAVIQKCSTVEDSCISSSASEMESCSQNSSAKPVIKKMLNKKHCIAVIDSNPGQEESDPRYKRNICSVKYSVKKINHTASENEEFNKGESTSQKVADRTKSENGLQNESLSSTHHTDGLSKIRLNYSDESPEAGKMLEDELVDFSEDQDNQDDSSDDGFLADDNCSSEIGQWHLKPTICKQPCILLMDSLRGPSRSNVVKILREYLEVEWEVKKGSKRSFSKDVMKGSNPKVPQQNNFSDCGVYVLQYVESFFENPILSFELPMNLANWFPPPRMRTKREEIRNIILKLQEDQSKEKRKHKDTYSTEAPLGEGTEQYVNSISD

[11] = target: T7, Insulin-degrading enzyme (Homo sapiens, UniProt P14735); test: activators of endogenous IDE in HEK cells, dose response, cell-based, fluorescence polarization (AID 588439); format: functional
T7 sequence (P14735 whole entry): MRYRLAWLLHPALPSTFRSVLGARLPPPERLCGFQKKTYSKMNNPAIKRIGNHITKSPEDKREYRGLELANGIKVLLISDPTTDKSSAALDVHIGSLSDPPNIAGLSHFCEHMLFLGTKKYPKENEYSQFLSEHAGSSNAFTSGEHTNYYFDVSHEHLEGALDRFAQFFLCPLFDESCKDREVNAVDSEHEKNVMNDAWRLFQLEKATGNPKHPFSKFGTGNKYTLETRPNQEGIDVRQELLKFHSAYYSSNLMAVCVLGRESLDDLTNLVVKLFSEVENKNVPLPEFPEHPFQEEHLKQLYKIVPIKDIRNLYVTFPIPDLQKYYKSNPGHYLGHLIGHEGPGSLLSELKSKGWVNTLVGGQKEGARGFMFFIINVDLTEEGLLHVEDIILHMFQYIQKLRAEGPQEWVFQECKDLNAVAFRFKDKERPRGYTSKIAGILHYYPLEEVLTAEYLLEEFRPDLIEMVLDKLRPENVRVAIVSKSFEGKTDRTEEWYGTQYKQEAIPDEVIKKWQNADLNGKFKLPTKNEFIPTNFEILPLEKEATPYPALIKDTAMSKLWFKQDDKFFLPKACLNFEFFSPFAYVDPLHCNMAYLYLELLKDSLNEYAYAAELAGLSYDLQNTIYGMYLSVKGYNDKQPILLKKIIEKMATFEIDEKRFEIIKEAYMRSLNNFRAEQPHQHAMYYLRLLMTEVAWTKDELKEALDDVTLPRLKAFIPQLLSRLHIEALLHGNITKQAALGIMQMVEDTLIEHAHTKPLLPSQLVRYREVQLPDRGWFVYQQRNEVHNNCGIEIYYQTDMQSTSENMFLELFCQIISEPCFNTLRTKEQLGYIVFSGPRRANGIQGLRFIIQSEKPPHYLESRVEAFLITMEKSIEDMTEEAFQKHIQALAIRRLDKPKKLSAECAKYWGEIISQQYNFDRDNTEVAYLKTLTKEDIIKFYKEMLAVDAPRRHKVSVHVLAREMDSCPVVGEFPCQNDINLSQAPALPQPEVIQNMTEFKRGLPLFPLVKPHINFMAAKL

[12] = target: T7, Insulin-degrading enzyme; test: activators of recombinant IDE enzyme, dose response, counter-screen for IDE activator project, biochemical, fluorescence polarization (AID 588681)
[13] = tested on: HEK293; test: optical interference in Abeta FP readout, dose response, artefact control for IDE activator project, biochemical, fluorescence polarization (AID 588442); format: functional, cell-based; conditions: Homo sapiens
[14] = tested on: HEK293; test: HEK cell cytotoxicity by LDH release, dose response, cytotoxicity control for IDE activator project, fluorescence, HEK cells (AID 588440); format: functional, cell-based; conditions: Homo sapiens;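 also: cytotoxicity by LDH release measuring loss of membrane integrity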

Compound: COC(=O)c1ccccc1NC(=O)CSc1nc(O)cc(=O)n1C1CCCC1
IC50 [1]: > 66.2 µM (inactive) | IC50 [2]: > 50 µM (inactive) | IC50 [3]: 0.137 µM (active) | IC50 [4]: 56.2 µM (inactive) | IC50 [5]: 4.86 µM (active) | IC50 [6]: > 49.8 µM (inactive)

IC50 [7]: > 99 µM (inactive) | IC50 [8]: > 99 µM (inactive) | IC50 [10]: > 99 µM (inactive)
Compound: Fc1cc(F)cc(-c2noc(/C=C/c3ccccc3)n2)c1
IC50 [9]: > 99 µM (inactive)

IC50 [7]: > 99 µM (inactive) | IC50 [8]: > 99 µM (inactive) | IC50 [10]: > 99 µM (inactive)
Compound: COc1ccc(C2C(C#N)=C(/N=C/N(C)C)Oc3c2c(C)nn3-c2ccccc2)cc1 (stereo not drawn)
IC50 [9]: > 99 µM (inactive)

Compound: C=CCN1C(=O)c2ccc(C(=O)OCC(=O)N(CC)C3CCS(=O)(=O)C3)cc2C1=O (stereo not drawn)
EC50 [11]: > 54.7 µM (inactive) | EC50 [12]: > 54.7 µM (inactive) | EC50 [13]: > 54.7 µM (inactive) | IC50 [14]: > 89.2 µM (inactive)
